Read-outs that look alike come from different tables or passages of the source. Non-standard residues stand in square brackets, D forms with d. Residues, ends and D or L forms follow the SMILES beside them. *: point of attachment. pY = N[C@@H](Cc1ccc(OP(=O)(O)O)cc1)C(=O)O; Caffeoyl = O=C(/C=C/c1ccc(O)c(O)c1)*
Assays:
Test in all cases: biochemical
Type in all cases: binding
CSK = biological target: T1, CSK (Homo sapiens, UniProt P41240); details: for percent of DMSO vehicle control: primary screen, 10 μM
T1 construct: the DNA-tagged SH2 domain concentrations used in this study were <0.1 nM; made in house; host or cells: HEK293 (transient transfection; unpurified extract)
T1 sequence (P41240 82-171 limits assumed): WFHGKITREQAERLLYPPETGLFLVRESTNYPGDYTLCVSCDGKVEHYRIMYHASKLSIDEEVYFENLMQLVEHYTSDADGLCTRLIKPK

SH3BP2 = biological target: T2, SH3BP2 (Homo sapiens, UniProt P78314); details: for remaining activity at 10 µM: read-out: percent of DMSO vehicle control
T2 construct: made in house; host or cells: HEK293 (transient transfection), unpurified extract
T2 sequence (P78314 1-561): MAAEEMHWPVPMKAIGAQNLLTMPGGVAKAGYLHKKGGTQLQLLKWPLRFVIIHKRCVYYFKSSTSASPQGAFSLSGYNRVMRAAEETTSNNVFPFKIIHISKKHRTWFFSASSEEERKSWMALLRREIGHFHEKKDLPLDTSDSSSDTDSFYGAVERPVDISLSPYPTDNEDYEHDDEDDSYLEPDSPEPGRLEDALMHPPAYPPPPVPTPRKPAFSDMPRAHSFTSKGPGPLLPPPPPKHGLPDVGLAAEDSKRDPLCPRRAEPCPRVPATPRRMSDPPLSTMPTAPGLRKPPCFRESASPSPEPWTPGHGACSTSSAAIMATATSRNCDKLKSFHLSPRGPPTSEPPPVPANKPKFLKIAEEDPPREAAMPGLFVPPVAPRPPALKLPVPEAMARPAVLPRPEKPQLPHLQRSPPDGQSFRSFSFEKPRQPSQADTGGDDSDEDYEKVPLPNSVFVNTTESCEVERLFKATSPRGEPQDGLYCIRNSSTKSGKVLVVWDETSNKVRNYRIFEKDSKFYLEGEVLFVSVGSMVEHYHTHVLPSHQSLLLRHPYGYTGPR

SOCS1 = biological target: T3, SOCS1 (Homo sapiens, UniProt O15524); details: for remaining activity at 10 µM: read-out: percent of DMSO vehicle control
T3 construct: made in house; host or cells: HEK293 (transient transfection), unpurified extract
T3 sequence (O15524 1-211): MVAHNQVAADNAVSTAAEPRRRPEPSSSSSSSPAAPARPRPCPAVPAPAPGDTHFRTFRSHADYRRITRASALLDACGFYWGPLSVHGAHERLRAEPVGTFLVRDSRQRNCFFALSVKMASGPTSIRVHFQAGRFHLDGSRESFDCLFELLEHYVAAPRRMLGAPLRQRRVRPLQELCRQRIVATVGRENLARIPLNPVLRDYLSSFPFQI

CBLC = biological target: T4, CBLC (Homo sapiens, UniProt Q9ULV8); details: for percent of DMSO vehicle control at 10 µM / remaining activity at 10 µM: read-out: percent of DMSO vehicle control; for remaining activity at 10 µM: primary screen
T4 construct: the DNA-tagged SH2 domain concentrations used in this study were <0.1 nM; made in house; host or cells: HEK293 (transient transfection; unpurified extract)
T4 sequence (Q9ULV8 219-321 limits assumed): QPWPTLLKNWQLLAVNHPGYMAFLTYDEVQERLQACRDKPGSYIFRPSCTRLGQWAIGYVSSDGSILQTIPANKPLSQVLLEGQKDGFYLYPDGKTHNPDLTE

GADS = biological target: T5, GADS (Homo sapiens, UniProt O75791); details: for percent of DMSO vehicle control at 10 µM / remaining activity at 10 µM: read-out: percent of DMSO vehicle control; for remaining activity at 10 µM: primary screen
T5 construct: the DNA-tagged SH2 domain concentrations used in this study were <0.1 nM; made in house; host or cells: HEK293 (transient transfection; unpurified extract)
T5 sequence (O75791 58-149 limits assumed): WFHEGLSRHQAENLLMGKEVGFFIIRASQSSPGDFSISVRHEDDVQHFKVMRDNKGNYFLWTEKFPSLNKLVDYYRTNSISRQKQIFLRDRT

SHIP1 = biological target: T6, SHIP1 (Homo sapiens, UniProt Q92835); details: for percent of DMSO vehicle control: primary screen, 10 μM
T6 construct: made in house; host or cells: HEK293 (transient transfection), unpurified extract
T6 sequence (Q92835 1-1189): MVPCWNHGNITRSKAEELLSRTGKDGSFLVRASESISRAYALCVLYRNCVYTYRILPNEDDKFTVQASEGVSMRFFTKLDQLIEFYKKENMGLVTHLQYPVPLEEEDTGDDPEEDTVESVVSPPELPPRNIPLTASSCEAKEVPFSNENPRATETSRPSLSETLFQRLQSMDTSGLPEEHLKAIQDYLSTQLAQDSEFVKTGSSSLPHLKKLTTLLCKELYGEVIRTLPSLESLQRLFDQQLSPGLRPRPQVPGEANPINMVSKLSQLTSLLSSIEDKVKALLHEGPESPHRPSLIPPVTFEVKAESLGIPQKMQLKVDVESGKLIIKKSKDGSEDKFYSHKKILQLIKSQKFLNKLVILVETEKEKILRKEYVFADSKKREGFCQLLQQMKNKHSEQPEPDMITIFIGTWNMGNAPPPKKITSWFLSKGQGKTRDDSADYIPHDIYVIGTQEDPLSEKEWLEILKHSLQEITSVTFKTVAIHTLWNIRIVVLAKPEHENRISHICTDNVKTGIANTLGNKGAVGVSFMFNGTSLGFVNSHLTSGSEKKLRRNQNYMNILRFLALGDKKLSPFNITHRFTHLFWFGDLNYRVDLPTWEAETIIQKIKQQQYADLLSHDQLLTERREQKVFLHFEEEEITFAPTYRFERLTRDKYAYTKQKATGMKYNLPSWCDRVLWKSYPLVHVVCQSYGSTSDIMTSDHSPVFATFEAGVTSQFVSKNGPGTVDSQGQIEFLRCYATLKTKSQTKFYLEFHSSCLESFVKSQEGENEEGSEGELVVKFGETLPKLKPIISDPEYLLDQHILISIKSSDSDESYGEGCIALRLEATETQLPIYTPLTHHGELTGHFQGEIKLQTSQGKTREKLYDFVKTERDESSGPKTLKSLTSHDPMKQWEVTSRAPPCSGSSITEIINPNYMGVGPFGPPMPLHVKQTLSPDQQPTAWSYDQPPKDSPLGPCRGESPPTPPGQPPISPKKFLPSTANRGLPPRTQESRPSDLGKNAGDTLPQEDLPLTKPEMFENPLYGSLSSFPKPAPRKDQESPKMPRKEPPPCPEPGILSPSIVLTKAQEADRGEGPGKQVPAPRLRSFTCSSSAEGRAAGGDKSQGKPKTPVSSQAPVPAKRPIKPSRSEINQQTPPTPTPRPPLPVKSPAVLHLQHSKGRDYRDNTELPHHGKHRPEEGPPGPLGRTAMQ

[1] = biological target: T7, STAT3(Y640F)-nonphosphorylated (Homo sapiens, UniProt P40763, Y640F); details: for percent of DMSO vehicle control at 10 µM / remaining activity at 10 µM: read-out: percent of DMSO vehicle control; for Kd: dose-response; for remaining activity at 10 µM: primary screen
T7 construct: made in house; host or cells: HEK293 (transient transfection), unpurified extract, dephosphorylated by endogenous phosphatases
T7 sequence (P40763 whole entry Y640F): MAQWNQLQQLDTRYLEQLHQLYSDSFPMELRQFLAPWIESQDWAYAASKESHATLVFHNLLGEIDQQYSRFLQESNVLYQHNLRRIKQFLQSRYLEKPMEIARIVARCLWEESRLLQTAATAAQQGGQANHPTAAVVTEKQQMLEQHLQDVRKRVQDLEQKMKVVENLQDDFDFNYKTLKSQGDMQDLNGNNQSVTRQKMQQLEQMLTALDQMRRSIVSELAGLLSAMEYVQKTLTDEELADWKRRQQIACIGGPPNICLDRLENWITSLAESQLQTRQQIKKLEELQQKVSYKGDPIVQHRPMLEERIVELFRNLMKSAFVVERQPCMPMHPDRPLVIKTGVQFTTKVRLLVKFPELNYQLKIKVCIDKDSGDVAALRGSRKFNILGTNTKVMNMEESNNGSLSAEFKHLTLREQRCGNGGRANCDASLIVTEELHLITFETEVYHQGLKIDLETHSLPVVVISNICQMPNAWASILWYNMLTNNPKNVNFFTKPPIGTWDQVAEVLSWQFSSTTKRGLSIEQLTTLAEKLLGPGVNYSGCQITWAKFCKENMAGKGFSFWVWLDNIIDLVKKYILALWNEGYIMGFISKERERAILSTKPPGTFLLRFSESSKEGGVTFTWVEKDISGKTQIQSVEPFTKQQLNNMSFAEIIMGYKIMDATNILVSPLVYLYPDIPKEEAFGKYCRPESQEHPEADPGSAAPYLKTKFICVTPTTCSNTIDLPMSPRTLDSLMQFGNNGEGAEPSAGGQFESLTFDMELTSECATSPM

PTPN11(SH2dom.C-term.) = biological target: T8, PTPN11(SH2dom.C-term.) (Homo sapiens, UniProt Q06124); details: for percent of DMSO vehicle control: primary screen, 10 μM
T8 construct: SH2dom.C-term. denotes SH2 domain closest to C-terminus of protein; made in house; host or cells: HEK293 (transient transfection, unpurified extract)
T8 sequence (Q06124 112-216 limits assumed): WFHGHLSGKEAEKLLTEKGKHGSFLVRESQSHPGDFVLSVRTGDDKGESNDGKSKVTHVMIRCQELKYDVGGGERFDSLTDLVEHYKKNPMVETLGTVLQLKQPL

[2] = biological target: T9, STAT3(N567K)-nonphosphorylated (Homo sapiens, UniProt P40763, N567K); details: for percent of DMSO vehicle control at 10 µM / remaining activity at 10 µM: read-out: percent of DMSO vehicle control; for Kd: dose-response; for remaining activity at 10 µM: primary screen
T9 construct: made in house; host or cells: HEK293 (transient transfection), unpurified extract, dephosphorylated by endogenous phosphatases
T9 sequence (P40763 whole entry N567K): as the sequence (P40763 whole entry Y640F) above, with N567K, F640Y counted along it

SMILES | percent of DMSO vehicle control (CSK) [%] | remaining activity at 10 µM (SH3BP2) [%] | remaining activity at 10 µM (SOCS1) [%] | percent of DMSO vehicle control at 10 µM (CBLC) [%] | percent of DMSO vehicle control at 10 µM (GADS) [%] | percent of DMSO vehicle control (SHIP1) [%] | percent of DMSO vehicle control at 10 µM [1] [%] | percent of DMSO vehicle control (PTPN11(SH2dom.C-term.)) [%] | percent of DMSO vehicle control at 10 µM [2] [%] | remaining activity at 10 µM (SH3BP2; primary screen, 10 μM) [%] | remaining activity at 10 µM (SOCS1; primary screen, 10 μM) [%] | Kd (CBLC; dose-response, read-out: KD) [nM] | remaining activity at 10 µM (CBLC) [%] | remaining activity at 10 µM (GADS) [%] | Kd ([1]; read-out: KD) [nM] | remaining activity at 10 µM [1] [%] | Kd ([2]; read-out: KD) [nM] | remaining activity at 10 µM [2] [%] | further results
CC[C@H](C)[C@H](NC(=O)[C@H](CCC(=O)O)NC(=O)[C@H](CCC(=O)O)NC(=O)[C@H](Cc1ccc(OP(=O)(O)O)cc1)NC(=O)/C=C/c1ccc(O)c(O)c1)C(=O)N[C@@H](CCC(=O)O)C(=O)O [Caffeic acid-pYEEIE] (Caffeoyl-[pY]EEIE-OH) | 103.0±4.8 | 0.9 ± 0.3 | 1.1 ± 0.1 | 0.1 | 94.8 | 9.0±2.9 | 131 ± 28.4 | 72.6±1.1 | 91 ± 2.3 | – | – | – | – | – | – | – | – | – | Kd (SH3BP2): 1020 ± 600 nM; Kd (SOCS1): 30 ± 6.5 nM; Kd (CBLC): 37 ± 23 nM; Kd (SHIP1): 5.8 ± 1.6 µM
NC(=O)CC[C@H](NC(=O)[C@@H]1CC[C@@H]2CCN(C(=O)CCCCCC#Cc3cccc4c3CN(C3CCC(=O)NC3=O)C4=O)C[C@H](NC(=O)c3cc4cc(C(F)(F)P(=O)(O)O)ccc4[nH]3)C(=O)N21)C(=O)NC(c1ccccc1)c1ccccc1 (stereo partly shown) [SD-36] | 97.3±14.8 | 91.5 ± 19.4 | 132 ± 8.8 | 113 ± 4.5 | 140.4 ± 0.2 | 44.1±5.9 | 0.2 ± 0.6 | 104.4±9.8 | 0.1 | – | – | – | – | – | – | – | – | – | Kd [1]: 80 ± 27 nM; Kd [2]: 30 ± 11 nM
CC(C)(C)[C@H](NC(=O)/C=C/c1ccc(OP(=O)(O)O)cc1)C(=O)N1CCC[C@H]1C(=O)N(c1ccccc1)c1ccc(I)cc1 [STAT6-IN-3] | 65.2±5.7 | – | – | – | – | 53.7±3.2 | – | 37.9±11.0 | – | 92.8 ± 2.7 | 95.9 ± 35.6 | 2800 ± 520 | 34.7 ± 1.3 | 76.5 ± 7.9 | 95 ± 40 | 2.4 ± 6.1 | 500 ± 200 | 0.2 ± 0.3 | –
C/C(=C\C(=O)N[C@H](C(=O)N1CCC[C@H]1C(=O)N(c1ccccc1)c1ccc(I)cc1)C(C)(C)C)c1ccc(OP(=O)(O)O)cc1 [STAT6-IN-1] | 26.3±0.8 | – | – | – | – | 4.4±1.3 | – | 2.1±0.9 | – | 56.5 ± 0.3 | 98.5 ± 3.5 | 1800 ± 490 | 3.3 ± 0.1 | 9.6 ± 0.1 | 102 ± 44 | 0 | 190 ± 107 | 0 | Kd (CSK; dose-response, read-out: KD): 3.05 ± 0.49 µM; Kd (GADS; dose-response, read-out: KD): 2400 nM; Kd (SHIP1; dose-response, read-out: KD): 4.4 ± 0.42 µM; Kd (PTPN11(SH2dom.C-term.); dose-response, read-out: KD): 1060 ± 350 nM
O=C(COc1ccc2cc(C(=O)Nc3ccccc3)ccc2c1)NCc1ccc(OP(=O)(O)O)c(OP(=O)(O)O)c1 [Stafib-1] | 111.7±5.5 | – | – | – | – | 61.1±7.3 | – | 99.1±12.9 | – | 86 ± 3.2 | 156 | – | 100 | 51.9 ± 12.6 | – | 75.3 ± 26 | – | 97.5 ± 16.8 | –

Reference: article PMC12951562, “SH2scan: Mapping SH2 Domain-Ligand Binding Selectivity for Inhibitors and Degraders” (Journal of Medicinal Chemistry, 2026)
